Patent publication US10844074B2, “Heterocycle compounds and uses thereof” (ZHEJIANG JIANFENG-YIEN BIOTECHNOLOGY CO., LTD., priority 2015, dated 2020)

Tests used:
[1] = biological target: EGFR T790M (Homo sapiens, UniProt P00533, T790M); experiment: EGFR Enzyme Assay; assay type: biochemical; details: 1 uM compound, read-out: T790M (% inh @ 1 uM)
Protocol: The following TABLE III lists compounds representative of the invention and their activity in EGFR assays. In these assays, the following grading was used: A: >50% @1 μM; B: <50% @ 1 μM.

[2] = biological target: BTK (Homo sapiens, UniProt Q06187); experiment: BTK Enzyme Assay; assay type: biochemical; details: 1 uM compound; read-out: BTK (% inh @ 1 uM)
Chain of BTK (Q06187 whole entry): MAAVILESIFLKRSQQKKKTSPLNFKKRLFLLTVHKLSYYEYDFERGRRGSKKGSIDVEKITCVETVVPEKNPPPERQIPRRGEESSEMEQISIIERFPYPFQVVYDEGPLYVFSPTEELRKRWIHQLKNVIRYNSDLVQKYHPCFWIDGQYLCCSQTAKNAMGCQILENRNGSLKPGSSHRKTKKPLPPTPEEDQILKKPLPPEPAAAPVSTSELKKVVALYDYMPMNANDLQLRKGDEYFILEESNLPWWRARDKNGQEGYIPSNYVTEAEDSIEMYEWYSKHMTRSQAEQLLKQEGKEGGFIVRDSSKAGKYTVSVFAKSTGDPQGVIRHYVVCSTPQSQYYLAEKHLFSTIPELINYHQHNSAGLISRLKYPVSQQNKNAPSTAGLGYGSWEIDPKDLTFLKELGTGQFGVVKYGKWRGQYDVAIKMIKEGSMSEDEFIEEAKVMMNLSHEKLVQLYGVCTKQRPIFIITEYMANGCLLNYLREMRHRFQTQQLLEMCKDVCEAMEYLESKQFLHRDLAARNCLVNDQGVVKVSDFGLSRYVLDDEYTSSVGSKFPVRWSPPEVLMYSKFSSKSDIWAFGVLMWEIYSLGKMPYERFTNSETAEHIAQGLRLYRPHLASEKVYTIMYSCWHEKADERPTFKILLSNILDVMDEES
Protocol: The following TABLE II lists compounds representative of the invention and their activity in BTK assays. In these assays, the following grading was used: A: >30% inhibition @1 μM; B: <30% inhibition @1 μM.

Chain of EGFR T790M (P00533 25-1210 T790M): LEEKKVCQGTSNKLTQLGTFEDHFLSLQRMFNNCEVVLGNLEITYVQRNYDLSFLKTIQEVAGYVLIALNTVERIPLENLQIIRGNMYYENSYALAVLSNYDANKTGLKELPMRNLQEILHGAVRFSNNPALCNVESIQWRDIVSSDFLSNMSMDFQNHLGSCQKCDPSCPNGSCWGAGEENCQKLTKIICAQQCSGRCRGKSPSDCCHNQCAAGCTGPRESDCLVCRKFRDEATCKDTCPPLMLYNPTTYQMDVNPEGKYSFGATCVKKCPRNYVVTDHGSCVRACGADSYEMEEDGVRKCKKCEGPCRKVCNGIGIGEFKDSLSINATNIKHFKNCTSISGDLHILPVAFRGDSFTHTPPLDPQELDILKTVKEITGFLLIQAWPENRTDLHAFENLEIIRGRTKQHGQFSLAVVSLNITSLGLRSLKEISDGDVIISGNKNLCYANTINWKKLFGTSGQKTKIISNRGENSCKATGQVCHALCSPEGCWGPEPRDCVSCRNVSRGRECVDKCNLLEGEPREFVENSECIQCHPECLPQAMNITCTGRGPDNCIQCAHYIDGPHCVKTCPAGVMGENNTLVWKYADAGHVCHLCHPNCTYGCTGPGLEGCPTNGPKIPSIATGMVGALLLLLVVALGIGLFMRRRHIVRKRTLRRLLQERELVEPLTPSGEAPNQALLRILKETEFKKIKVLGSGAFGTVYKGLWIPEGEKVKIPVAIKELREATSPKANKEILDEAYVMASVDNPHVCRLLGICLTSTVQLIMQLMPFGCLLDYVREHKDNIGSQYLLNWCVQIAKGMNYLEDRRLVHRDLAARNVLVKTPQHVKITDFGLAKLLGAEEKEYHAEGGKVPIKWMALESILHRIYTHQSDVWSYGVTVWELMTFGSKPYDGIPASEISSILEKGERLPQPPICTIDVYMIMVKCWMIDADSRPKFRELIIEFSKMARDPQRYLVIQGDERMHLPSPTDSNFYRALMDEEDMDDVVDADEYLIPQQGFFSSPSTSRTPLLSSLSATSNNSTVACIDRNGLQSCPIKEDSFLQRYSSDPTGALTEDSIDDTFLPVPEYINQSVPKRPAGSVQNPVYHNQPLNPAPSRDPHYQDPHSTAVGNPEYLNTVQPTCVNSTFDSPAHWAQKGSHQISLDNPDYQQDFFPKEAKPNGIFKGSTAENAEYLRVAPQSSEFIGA

**Q.** `C=CC(=O)Nc1cc(NC2=NC(c3cccc(NC(C)(C)C)c3)C3SC=CC3=N2)c(OC)cc1N(C)C` (stereo not drawn) [Compound 5, N-[5-[[4-[3-(tert-butylamino)phenyl]-4,4a-dihydrothieno[3,2-d]pyrimidin-2-yl]amino]-2-(dimethylamino)-4-methoxy-phenyl]prop-2-enamide] was tested. Which inhibition at 1 µM [1] did it give?
**A.** > 50%

**Q.** And the inhibition at 1 µM [2]?
**A.** > 30%

**Q.** What does the source list for `C=CC(=O)Nc1cc(Nc2nc(-c3ccccc3)c3sccc3n2)c(OC)cc1N1CCN(C)CC1` [Compound 26, N-[4-methoxy-2-(4-methylpiperazin-1-yl)-5-[(4-phenylthieno[3,2-d]pyrimidin-2-yl)amino]phenyl]prop-2-enamide]?
**A.** inhibition at 1 µM [1]: < 50%; inhibition at 1 µM [2]: > 30%

**Q.** Which results are given for `C=CC(=O)Nc1cc(NC2=NC(c3cccc(N(C)C)c3)C3SC=CC3=N2)c(OC)cc1N1CCOCC1` (stereo not drawn) [Compound 10, N-[5-[[4-[3-(dimethylamino)phenyl]-4,4a-dihydrothieno[3,2-d]pyrimidin-2-yl]amino]-4-methoxy-2-morpholino-phenyl]prop-2-enamide]?
**A.** inhibition at 1 µM [1]: > 50%; inhibition at 1 µM [2]: > 30%
